Measurements from US11578055B2, “Triazacyclododecansulfonamide (“TCD”)-based protein secretion inhibitors” (KEZAR LIFE SCIENCES, priority 2018, dated 2023).
Read-outs that look alike come from different tables or passages of the source.

Columns and labels:
[1] = tested on: full length IL-2 (amino acids 1-153) fused to Gaussia Luciferase; assay: Dox Induced IL2-FL-Gluc Assay; assay type: cell-based; conditions: 24 hr, read-out: 24 hr Dox Inducible IL2FLGluc 293FRT/TO: Mean IC50
From the text: FIp-In 293 T-REx™ cells were transfected with pcDNA™5/FRT/TO plasmid inserted with cDNA encoding Gaussia Luciferase fused to the 3′ end of cDNA encoding full length IL-2 (amino acids 1-153). Transfected cells were selected for resistance to the selectable markers Hygromycin and Blasticidin to create a stable cell line that contained the IL-2-FL/Gaussia Luciferase cDNA insert whose expression was regulated under the T-REx™ system. The day before assay, cells were trypsinized and plated in 384-well tissue culture plates. The next day, compound dilutions in DMSO/media containing doxycycline were added to the wells and incubated at 37° C., 5% CO2.
For chemical structures that include one or more stereoisomers, but are illustrated without indicating stereochemistry, the assay data refers to a mixture of stereoisomers.

[2] = In Vitro Microsome Stability Assay (monkey); assay type: in vitro ADME
Method in brief: (§1)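 Species liver microsomes in potassium phosphate buffer were preincubated at 37 °C for 3–5 min with test compound (added from 0.25 mM DMSO stock), then started with NADPH. Samples at 0 and 30 min were quenched with acetonitrile containing internal standard and analysed by LC-MS/MS; % remaining at 30 min used analyte/IS AUC ratios relative to t=0.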

[3] = tested on: multiple myeloma cell line NCl-H929; assay: H929 Cell Viability Assay; assay type: cell-based, human; conditions: Homo sapiens, NCI-H929, 48 h
Method in brief: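 NCI-H929 myeloma cells in RPMI 1640 with 10% FBS were treated with compound dilutions for 48 h at 37 °C, and viability was then read by CellTiter-Glo luminescence. Compounds drawn without stereochemistry were tested as stereoisomer mixtures.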

[4] = tested on: multiple myeloma cell line U266B1; assay: U266 Cell Viability Assay; assay type: cell-based, human; conditions: Homo sapiens, U-266, 48 hr
Method in brief: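 U266B1 myeloma cells in RPMI 1640 with 10% FBS were treated with compound dilutions for 48 h at 37° C, 5% CO2. Viability was read as CellTiter-Glo luminescence. Data for structures drawn without stereochemistry refer to stereoisomer mixtures.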

[5] = In Vitro Microsome Stability Assay (human); assay type: in vitro ADME
Method in brief: as §1

[6] = In Vitro Microsome Stability Assay (rat); assay type: in vitro ADME
Method in brief: as §1

[7] = tested on: PD1 signal sequence plus 10 amino acids fused to Gaussia Luciferase (PD1-ss+10aa/Gaussia Luciferase); assay: Dox Induced PD1-ss-Gluc Assay; assay type: cell-based; conditions: 24 hr, read-out: 24 hr Dox Inducible PD1ssGluc 293FRT/TO: Mean IC50
Method in brief: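 Stable Flp-In 293 T-REx line expressing the fusion under tetracycline-inducible control, plated the day before assay. Compound dilutions added with doxycycline and incubated at 37 °C, 5% CO2; unspecified stereocentres mean data refer to stereoisomer mixtures.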

[8] = tested on: full length TNFα (amino acids 1-233) fused to Gaussia Luciferase; assay: Dox Induced TNFα-FL-Gluc Assay; assay type: cell-based; conditions: 24 hr, read-out: 24 hr Dox Inducible TNFaFLGluc 293FRT/TO: Mean IC50
Method in brief: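 Stable Flp-In 293 T-REx line expressing doxycycline-inducible full-length TNFα fused to Gaussia luciferase; cells plated the day before, then treated with compound dilutions in doxycycline-containing medium at 37° C, 5% CO2. Unspecified stereocentres mean stereoisomer mixtures were tested.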

[9] = In Vitro Microsome Stability Assay (mouse); assay type: in vitro ADME
Method in brief: as §1

[10] = H929, read-out: 48 hr H929 Viability Celltiter-Glo: Mean EC50
[11] = U266, read-out: 48 hr U266 Viability Celltiter-Glo: Mean EC50
[12] = monkey liver microsomes, 30 min w/ NADPH
[13] = human liver microsomes, 30 min w/ NADPH
[14] = rat liver microsomes, 30 min w/ NADPH
[15] = mouse liver microsomes, 30 min w/ NADPH

SMILES | IC50 ([1]; 293FRT/TO) [nM] | Liver Microsome Stability-% Left after 30 min w/ NADPH (%) Monkey ([2]; monkey, 30 min, NADPH) [%] | EC50 [3, 10] [nM] | EC50 [4, 11] [nM] | Liver Microsome Stability-% Left after 30 min w/ NADPH (%) Human ([5]; human, 30 min, NADPH) [%] | Liver Microsome Stability-% Left after 30 min w/ NADPH (%) Rat ([6]; rat, 30 min, NADPH) [%] | IC50 ([7]; 293FRT/TO) [nM] | IC50 ([8]; 293FRT/TO) [nM] | Liver Microsome Stability-% Left after 30 min w/ NADPH (%) Mouse ([9]; mouse, 30 min, NADPH) [%] | IC50 ([1]; Dox inducible, 293FRT/TO cells) [nM] | Liver Microsome Stability-% Left after 30 min w/ NADPH (%) Monkey [2, 12] [%] | EC50 ([3]; H929, Celltiter-Glo) [nM] | EC50 ([4]; U266, Celltiter-Glo) [nM] | Liver Microsome Stability-% Left after 30 min w/ NADPH (%) Human [5, 13] [%] | Liver Microsome Stability-% Left after 30 min w/ NADPH (%) Rat [6, 14] [%] | IC50 ([7]; Dox inducible, 293FRT/TO cells) [nM] | IC50 ([8]; Dox inducible, 293FRT/TO cells) [nM] | Liver Microsome Stability-% Left after 30 min w/ NADPH (%) Mouse [9, 15] [%]
C[C@H]1CN(S(=O)(=O)c2ccc(N(C)C)cc2)CCCN(CC2CCCCC2)CCCN(S(=O)(=O)N2CC[C@H](c3ccccc3)C2)C1 [A91, 4-{[(3S)-9-(cyclohexylmethyl)-3-methyl-5-{[(3 R)-3-phenylpyrrolidin-1-yl]sulfonyl}-1,5,9-triazacyclododecan-1-yl]sulfonyl}-N,N-dimethylaniline] | 377 | 21.8 | 3010 | 14700 | 23.7 | 21.6 | 193 | 2460 | 25.4 | – | – | – | – | – | – | – | – | –
C[C@@H]1CCN(S(=O)(=O)N2CCc3cc(Cl)ccc3C2)CCCN(CC2CCCCC2)CCCN1S(=O)(=O)c1ccc(N(C)C)cc1 [A149, 4-{[(2 R)-5-[(6-chloro-1,2,3,4-tetrahydroisoquinolin-2-yl)sulfonyl]-9-(cyclohexylmethyl)-2-methyl-1,5,9-triazacyclododecan-1-yl]sulfonyl}-N,N-dimethylaniline] | – | – | – | – | – | – | – | – | – | > 25000 | 0.96 | > 25000 | > 25000 | 0.44 | 0.47 | > 25000 | > 25000 | 0.83
C[C@@H]1CN(CC2CCCCC2)C[C@H](C)CN(S(=O)(=O)c2ccc(N(C)C)cc2)C[C@H](C)CN(S(=O)(=O)N2CCc3cc(Cl)ccc3C2)C1 [B16, 4-{[(3S,7R,11S)-5-[(6-chloro-1,2,3,4-tetrahydroisoquinolin-2-yl]sulfonyl]-9-(cyclohexylmethyl)-3,7,11-trimethyl-1,5,9-triazacyclododecan-1-yl]sulfonyl}-N,N-dimethylaniline] | – | – | – | – | – | – | – | – | – | 826 | 44.7 | > 25000 | > 25000 | 55.2 | 72.3 | 449 | 13900 | 58.4
CC(C)CN1CCCN(S(=O)(=O)c2ccc(N(C)C)cc2)C[C@H](C)CN(S(=O)(=O)N2CCc3cc(Cl)ccc3C2)CCC1 [A152] | – | – | – | – | – | – | – | – | – | 174 | 3.22 | 2170 | > 25000 | 3.69 | 3.6 | 81.5 | 1030 | 5.06
CC1c2ccccc2CCN1S(=O)(=O)N1CCCN(CC2CCCCC2)CCCN(S(=O)(=O)c2ccc(N(C)C)cc2)C[C@H](C)C1 (stereo partly drawn) [A170, 4-{[(3S)-9-(cyclohexylmethyl)-3-methyl-5-[(1-methyl-1,2,3,4-tetrahydroisoquinolin-2-yl]sulfonyl]-1,5,9-triazacyclododecan-1-yl]sulfonyl}-N,N-dimethylaniline] | – | – | – | – | – | – | – | – | – | 134 | 1.37 | 1780 | > 25000 | 7.2 | 10.8 | 56.1 | 798 | 3.65
C[C@H]1CN(S(=O)(=O)c2ccc(N(C)C)cc2)CCCN(CC2CCCCC2)CCCN(S(=O)(=O)N2CCN(c3ccccc3OC(F)(F)F)CC2)C1 [A173, 4-{[(3S)-9-(cyclohexylmethyl)-3-methyl-5-({4-[2-(trifluoromethoxy)phenyl]piperazin-1-yl}sulfonyl)-1,5,9-triazacyclododecan-1-yl]sulfonyl}-N,N-dimethylaniline] | – | – | – | – | – | – | – | – | – | 248 | 55.9 | > 25000 | > 25000 | 56.1 | 53.8 | 78.8 | 5640 | 49.2
C[C@H]1CN(S(=O)(=O)c2ccc(N(C)C)cc2)CCCN(CC2CCCCC2)CCCN(S(=O)(=O)N2CCC(Oc3ccccc3)CC2)C1 [A92, 4-{[(3S)-9-(cyclohexylmethyl)-3-methyl-5-[(4-phenoxypiperidin-1-yl)sulfonyl]-1,5,9-triazacyclododecan-1-yl]sulfonyl}-N,N-dimethylaniline] | 519 | 40.4 | > 25000 | > 25000 | 44.3 | 51.8 | 304 | > 25000 | 40.8 | – | – | – | – | – | – | – | – | –
C[C@H]1CN(CC2CCCCC2)C[C@H](C)CN(S(=O)(=O)N2CCc3cc(Cl)ccc3C2)C[C@@H](C)CN(S(=O)(=O)c2ccc(N(C)C)cc2)C1 [A160, 4-{[(3S,7S,11S)-5-[(6-chloro-1,2,3,4-tetrahydroisoquinolin-2-yl]sulfonyl]-9-(cyclohexylmethyl)-3,7,11-trimethyl-1,5,9-triazacyclododecan-1-yl]sulfonyl}-N,N-dimethylaniline] | – | – | – | – | – | – | – | – | – | 453 | 46.1 | > 25000 | > 25000 | 71.8 | 51.1 | 153 | 10700 | 61.3
